Test results published in US20240067657A1, “AMIDO-SUBSTITUTED PYRIDYL COMPOUNDS AND METHODS OF USE THEREOF FOR THE TREATMENT OF HERPESVIRUSES” (Merck Sharp & Dohme LLC, priority 2020, published 2024).
pEC50, pIC50: −log10 of the molar value. Where two headings read alike, the source gives them in different places.

Legend:
[1] = tested on: HSV-1 Strain F in Vero or MRC5 cells; assay: Viral qPCR assay HSV-1 (V0/V1, V2/V3), EC50; format: cell-based; settings: 10%
In short: (§1)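 Infected cells added to compounds (10-point 3-fold series), ~72 h at 37 °C, then lysed; viral genomes by TaqMan qPCR against plasmid standard, normalized to PPIA in V0/V1 only, EC50 from 4-parameter fit. HCMV AD169, 0.05-0.1 pfu/cell, ± 50% FBS; VZV 0.04-0.1 pfu/cell; HSV-1 F 0.0005-0.004 pfu/cell.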

[2] = tested on: HCMV Strain AD169 in MRC-5 cells; assay: Viral qPCR assay HCMV (V0/V1, V2/V3), EC50; format: cell-based; settings: Human betaherpesvirus 5, AD169, MRC5, viral qPCR assay of Example 191; read-out: HCMV Cell (EC50)
In short: as §1

[3] = molecular target: T1, varicella zoster virus DNA polymerase (Varicella-zoster virus, UniProt P09252); assay: VZV polymerase assay (AlphaLISA, IC50); format: biochemical; settings: polymerase assay of Example 190
T1 construct: made in house; host or cells: SF21 insect cells (baculovirus vector)
T1 sequence (P09252 whole entry): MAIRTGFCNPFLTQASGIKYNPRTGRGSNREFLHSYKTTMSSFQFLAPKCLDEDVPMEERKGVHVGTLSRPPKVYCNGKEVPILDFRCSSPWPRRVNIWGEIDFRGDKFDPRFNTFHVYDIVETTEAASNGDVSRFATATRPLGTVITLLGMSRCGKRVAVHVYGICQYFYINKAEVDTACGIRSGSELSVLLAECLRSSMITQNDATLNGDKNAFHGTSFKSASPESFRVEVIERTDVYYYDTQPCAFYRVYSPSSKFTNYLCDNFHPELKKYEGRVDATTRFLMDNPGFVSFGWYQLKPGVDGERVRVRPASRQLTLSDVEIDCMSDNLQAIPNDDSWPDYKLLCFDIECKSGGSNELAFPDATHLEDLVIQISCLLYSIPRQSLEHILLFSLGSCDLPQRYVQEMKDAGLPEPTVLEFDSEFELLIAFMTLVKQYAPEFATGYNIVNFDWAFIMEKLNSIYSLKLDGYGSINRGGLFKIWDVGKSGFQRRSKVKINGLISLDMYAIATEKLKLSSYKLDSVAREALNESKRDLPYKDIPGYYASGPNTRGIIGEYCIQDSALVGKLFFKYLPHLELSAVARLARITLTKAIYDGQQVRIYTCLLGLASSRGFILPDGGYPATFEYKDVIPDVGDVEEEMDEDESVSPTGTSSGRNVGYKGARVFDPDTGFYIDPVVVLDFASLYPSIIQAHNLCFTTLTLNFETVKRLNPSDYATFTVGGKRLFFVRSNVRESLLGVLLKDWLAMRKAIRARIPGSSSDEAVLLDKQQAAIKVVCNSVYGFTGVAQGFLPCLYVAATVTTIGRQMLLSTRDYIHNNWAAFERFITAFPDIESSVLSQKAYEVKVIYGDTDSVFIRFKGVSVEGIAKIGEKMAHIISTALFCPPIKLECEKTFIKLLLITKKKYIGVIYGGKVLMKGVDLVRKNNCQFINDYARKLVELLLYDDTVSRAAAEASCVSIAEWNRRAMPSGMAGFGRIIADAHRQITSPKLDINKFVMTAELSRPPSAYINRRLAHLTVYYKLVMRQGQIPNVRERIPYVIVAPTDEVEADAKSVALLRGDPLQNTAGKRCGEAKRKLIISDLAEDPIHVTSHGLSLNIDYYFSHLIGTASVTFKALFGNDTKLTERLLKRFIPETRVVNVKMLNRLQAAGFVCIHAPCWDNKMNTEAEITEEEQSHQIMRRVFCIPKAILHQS
Experimental: Human cytomegalovirus and varicella zoster virus DNA polymerases were expressed via baculovirus vector in SF21 cells and purified. Heterodimeric nucleic acid substrate used in the herpesvirus polymerase reactions was generated by annealing a 59-mer template to a 17-mer digoxigenin-labeled primer. Polymerase (HCMV final concentration of 0.2 nM; VZV final concentration of 0.4 nM) was combined with an inhibitor compound or DMSO in assay buffer (10 mM HEPES, pH 7.5, 25 mM KCl, 25 mM NaCl, 5 mM MgCl2, 5% glycerol, 0.67 mg/ml bovine serum albuminutes, and 1 mM tris(2-carboxyethyl)phosphine), and this mixture was pre-incubated for 30 minutes at room temperature in 384-well microtiter plates. The polymerization reaction was initiated by the addition of template/primer substrate (final concentration: 1.6 nM), and dNTPs (final concentration: 24 nM dCTP, 24 nMdGTP, 16 nM dATP, 16 nM dTTP, and 0.8 nM biotin-dUTP). After 60 minutes incubation at 37° C., reactions were terminated with quench buffer (25 mM HEPES pH 7.5, 100 mM NaCl, 0.25% Tween-20, 12 mM EDTA, and 1 mg/ml bovine serum albumin). Incorporation of biotinylated UTP was detected with 2.5-5 ug/ml anti-DIG AlphaLISA acceptor beads and 5-10 ug/ml streptavidin AlphaLISA donor beads (Perkin Elmer). Compound effects were normalized to the window defined by the controls (DMSO only and pre-quenched wells), and were fit using a 4-parameter algorithm to report an IC50.

[4] = tested on: VZV in MeWo or MRC5 cells; assay: Viral qPCR assay VZV (V0/V1, V2/V3), EC50; format: cell-based; settings: 10%
In short: as §1

[5] = molecular target: T2, Human cytomegalovirus DNA polymerase (Human cytomegalovirus, UniProt P08546); assay: HCMV polymerase assay (AlphaLISA, IC50); format: biochemical; settings: polymerase assay of Example 190
T2 construct: made in house; host or cells: SF21 insect cells (baculovirus vector)
T2 sequence (P08546 whole entry): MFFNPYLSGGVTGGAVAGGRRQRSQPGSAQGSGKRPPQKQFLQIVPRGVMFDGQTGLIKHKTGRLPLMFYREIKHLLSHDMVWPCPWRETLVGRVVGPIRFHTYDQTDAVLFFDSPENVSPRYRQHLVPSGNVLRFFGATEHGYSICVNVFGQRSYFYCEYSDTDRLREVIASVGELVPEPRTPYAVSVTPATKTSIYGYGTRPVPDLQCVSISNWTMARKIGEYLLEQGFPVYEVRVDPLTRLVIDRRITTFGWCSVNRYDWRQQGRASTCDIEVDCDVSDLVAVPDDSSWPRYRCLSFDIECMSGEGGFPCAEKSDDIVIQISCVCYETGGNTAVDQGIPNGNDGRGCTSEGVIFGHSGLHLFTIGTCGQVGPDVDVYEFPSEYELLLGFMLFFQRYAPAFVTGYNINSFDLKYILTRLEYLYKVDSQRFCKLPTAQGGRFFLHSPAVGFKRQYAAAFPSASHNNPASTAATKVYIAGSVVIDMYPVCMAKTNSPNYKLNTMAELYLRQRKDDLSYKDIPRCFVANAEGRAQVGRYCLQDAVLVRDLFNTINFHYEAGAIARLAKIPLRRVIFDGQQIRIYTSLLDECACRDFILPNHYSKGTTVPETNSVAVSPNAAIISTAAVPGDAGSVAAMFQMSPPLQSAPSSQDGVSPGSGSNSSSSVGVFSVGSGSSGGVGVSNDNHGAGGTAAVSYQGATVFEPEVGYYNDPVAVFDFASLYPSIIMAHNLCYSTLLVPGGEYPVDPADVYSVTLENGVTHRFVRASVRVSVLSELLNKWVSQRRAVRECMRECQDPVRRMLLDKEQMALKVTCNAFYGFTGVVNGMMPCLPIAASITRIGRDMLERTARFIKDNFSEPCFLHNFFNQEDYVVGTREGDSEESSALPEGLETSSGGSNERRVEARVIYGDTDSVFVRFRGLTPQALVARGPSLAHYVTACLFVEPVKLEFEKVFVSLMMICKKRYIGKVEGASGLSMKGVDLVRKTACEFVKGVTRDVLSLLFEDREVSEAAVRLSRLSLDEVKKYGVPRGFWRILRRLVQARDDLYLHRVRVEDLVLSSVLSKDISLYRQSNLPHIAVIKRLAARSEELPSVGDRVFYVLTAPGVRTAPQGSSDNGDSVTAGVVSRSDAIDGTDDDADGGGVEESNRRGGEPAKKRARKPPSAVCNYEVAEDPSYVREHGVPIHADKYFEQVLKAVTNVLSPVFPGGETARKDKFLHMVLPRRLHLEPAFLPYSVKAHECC
In short: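 Baculovirus-expressed polymerase (HCMV 0.2 nM, VZV 0.4 nM final) preincubated 30 min at room temperature with compound in pH 7.5 HEPES buffer; reaction started with 1.6 nM DIG-primer/template and nM dNTPs including biotin-dUTP, run 60 min at 37° C. Incorporation detected by AlphaLISA; IC50 from 4-parameter fit.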

[6] = Human alphaherpesvirus 1, MRC5, MRC5 cells, read-out: HSV1 Cell (EC50) MRC5 10%
[7] = Human alphaherpesvirus 3, MRC5, MRC5 cells, read-out: VZV Cell (EC50) MRC5 10%
[8] = Human alphaherpesvirus 1, Vero, VERO cells, read-out: HSV1 Cell (EC50) VERO 10%
[9] = Human alphaherpesvirus 3, MeWo, MEWO cells, read-out: VZV Cell (EC50) MEWO 10%

SMILES	pIC50 [3]	pIC50 [5]	pEC50 [1, 6]	pEC50 [2]	pEC50 [4, 7]	pEC50 [1, 8]	pEC50 [4, 9]
CC(=O)N1CCC(Oc2cc(C(=O)NCc3ccc(Cl)cc3)ncc2-c2cnc(C)s2)CC1 [Compound 43]	7.84	7.60	6.97	6.75	6.86	–	–
CC(=O)N1CCC(Oc2cc(C(=O)NCc3ccc(Cl)cc3)ncc2/C=C\c2ccccn2)CC1 [Compound 77]	7.43	6.99	–	6.08	–	6.91	6.64
O=C(NCc1ccc(Cl)nc1)c1cc(O[C@H]2CCN3C(=O)OC[C@@H]3C2)c(-c2cnn(C(F)F)c2)cn1 [Compound 86]	7.69	6.72	–	6.12	–	5.84	6.08
CC(=O)N1CCC(Oc2cc(C(=O)NCc3ccc(Cl)cc3)ncc2-c2ccns2)CC1 [Compound 46]	8.40	7.68	7.04	6.83	6.95	–	–
O=C(NCc1ccc(Cl)cc1)c1cc(O[C@H]2CCN3C(=O)OC[C@@H]3C2)c(CNC2CC2)cn1 [Compound 141]	7.35	7.11	–	6.26	5.66	6.54	–
COC1CN(c2cnc(C(=O)NCc3ccc(Cl)cc3)cc2O[C@H]2CCN3C(=O)OC[C@@H]3C2)C1 [Compound 120]	8.59	7.79	6.36	6.68	6.36	–	–
O=C(NCc1ccc(F)c(F)c1F)c1cc(O[C@H]2CCN3C(=O)OC[C@@H]3C2)c(-c2cnn(C(F)F)c2)cn1 [Compound 87]	7.41	7.06	–	6.20	–	6.42	6.36
CC(=O)N1CCC(Oc2cc(C(=O)NCc3ccc(Cl)cc3)ncc2-c2cc[nH]n2)CC1 [Compound 64]	7.19	6.79	–	5.99	–	5.93	6.36
O=C(NCc1ccc(Cl)cc1)c1cc(O[C@H]2CCN3C(=O)OC[C@@H]3C2)c(-c2cnco2)cn1 [Compound 24]	≥ 9.35	8.80	7.25	7.01	6.92	–	–
N#Cc1cnc(C(=O)NCc2ccc(Cl)cc2)cc1O[C@H]1CCN2C(=O)OCC[C@@H]2C1 [Compound 164]	8.63	7.74	6.33	6.36	6.16	–	–

The remaining compounds from weak to strong by pIC50 [3], led by results:

pIC50 [3]	pIC50 [5]	SMILES	pEC50 [1, 6]	pEC50 [2]	pEC50 [4, 7]	pEC50 [1, 8]	pEC50 [4, 9]
6.98	6.69	O=C(NCc1ccc(Cl)cc1)c1cc(O[C@H]2CCN3C(=O)NC[C@@H]3C2)c(-c2cnn(C(F)F)c2)cn1 (racemic) [Compound 163]	–	5.56	–	6.12	6.23
7.41	7.29	Cc1cnc(C(=O)NCc2ccc(Cl)cc2)cc1O[C@H]1CCN2C(=O)OC[C@@H]2C1 [Compound 68]	6.16	6.22	5.96	6.57	6.90
7.75	7.44	CC(=O)N1CCC(Oc2cc(C(=O)NCc3ccc(Cl)cc3)ncc2-c2nc(C)ns2)CC1 [Compound 49]	6.29	6.81	6.10	–	–
7.93	7.45	CC(=O)N1CCC(Oc2cc(C(=O)NCc3ccc(Cl)cc3)ncc2-c2cnco2)CC1 [Compound 65]	6.54	6.11	6.14	–	–
7.95	7.68	CCn1cc(-c2cnc(C(=O)NCc3ccc(Cl)cc3)cc2O[C@H]2CCN3C(=O)OC[C@@H]3C2)cn1 (racemic) [Compound 16]	–	6.73	–	6.70	6.78
